Data on five molecules can be found in article PMC5440646, “T Cell Costimulation by CD6 Is Dependent on Bivalent Binding of a GADS/SLP-76 Complex” (Molecular and Cellular Biology, 2017).

The target of one assay is T1, GADS SH2 (Homo sapiens, UniProt O75791).
T1 construct: Recombinant His-tagged SH2 domains of GADS, GRB2, and TSAd in the popinF vector; His tag; made in house; host or cells: Escherichia coli Rosetta(DE3)/pLysS
T1 sequence (O75791 58-149 limits assumed): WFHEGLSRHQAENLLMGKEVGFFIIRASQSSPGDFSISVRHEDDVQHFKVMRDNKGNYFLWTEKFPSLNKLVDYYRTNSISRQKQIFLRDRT
Description: SPR equilibrium binding of recombinant GADS SH2 domain to immobilized phosphopeptides. The note with it: 37°C; for Kd: range; for pKd: fitted equilibrium curve of the experiment shown, 2-fold serial dilutions of GADS SH2 from 35 μM over immobilized peptide, streptavidin background subtracted, read-out: KD, GADS SH2 (Fig. 1A). The text has this:
(§1) We measured the direct binding of purified monomeric SH2 domains to the phosphorylated CD6 Y629 peptide at physiological temperature using surface plasmon resonance (SPR) (Fig. 1). The sensorgram traces for all three proteins binding to phosphorylated CD6 Y629 are consistent with monomeric binding of all three proteins (Fig. 1, right). Equilibrium binding data were plotted to determine dissociation constants (KDs) (Fig. 1, left). GADS and GRB2 bound with similar KDs to phosphorylated Y629, at 1 to 3 μM and 2 to 4 μM, respectively (Fig. 1A and B and Table 2). As an indication that the recombinant proteins were active, the SH2 domains of GADS and GRB2 bound to a phosphorylated CD28-derived peptide containing the YXN motif with an affinity (KD = 2 to 3 μM) similar to that determined by previous measurements (Fig. 1 and Table 2) ([14]).
(§2) Recombinant His-tagged SH2 domains of GADS, GRB2, and TSAd in the popinF vector (provided by Louis Bird, Oxford Protein Production Facility, Harwell, Oxfordshire, UK) and SLP-76 ([1]) were expressed in Escherichia coli Rosetta(DE3)/pLysS competent cells (Novagen) and purified by nickel affinity chromatography and size exclusion chromatography. Peptides for CD6 pY662 (biotin-[…]pYDDISAA), CD6 Y629 (biotin-[…]), CD6 pY629 (biotin-SSGEWpYQNFQP), and CD28 pYMNM (biotin-LLHSDpYMNMTP) were immobilized at ∼25 response units on streptavidin-coated CM5 chips in a BIAcore 3000 machine (Peptide Protein Research Ltd., Hampshire, UK) ([1], [14]). Long CD6 peptides (biotin-[…]pYDDISAA) phosphorylated at Y629 (pY629), Y662 (pY662), or both (pY629 pY662) were immobilized at ∼50 response units. Serially diluted proteins were injected over the chip at 10 μl/min at 37°C. Background signals of proteins over a streptavidin-coated flow cell were subtracted, equilibrium binding data were plotted, and KDs for 1:1 Langmuir binding were determined.

For a further assay, the target named is T2, GRB2 SH2 (Homo sapiens, UniProt P62993).
T2 construct: Recombinant His-tagged SH2 domains of GADS, GRB2, and TSAd in the popinF vector; His tag; made in house; host or cells: Escherichia coli Rosetta(DE3)/pLysS
As to the kind of experiment: SPR equilibrium binding of recombinant GRB2 SH2 domain to immobilized phosphopeptides. The note with it: 37°C; for Kd: equilibrium binding of soluble recombinant SH2 domain to immobilized biotinylated peptide (~25 RU on streptavidin-coated CM5 chip), 1:1 Langmuir, range, n = 3, read-out: KD (μM) GRB2 SH2.
Source text: as §1, §2

In the next assay the target is T3, SLP-76 SH2 (Homo sapiens, UniProt Q13094).
T3 construct: 2-fold serial dilutions of GADS (10 μM) (A) and SLP-76 (20 μM) (B) SH2 domains over the long CD6 peptides; His tag; made in house; host or cells: Escherichia coli Rosetta(DE3)/pLysS
T3 sequence (Q13094 422-530 limits assumed): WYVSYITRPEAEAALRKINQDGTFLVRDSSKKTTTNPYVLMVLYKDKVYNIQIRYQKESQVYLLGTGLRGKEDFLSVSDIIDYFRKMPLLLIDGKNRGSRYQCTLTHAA
As to the kind of experiment: SPR equilibrium binding of recombinant SLP-76 SH2 domain to immobilized long CD6 peptides. The note with it: 37°C; for Kd: equilibrium binding of soluble recombinant SH2 domain to immobilized long CD6 peptides (~50 RU), range, n = 3.
Source text: SPR analysis with long peptides containing both Y629 and Y662 phosphorylated at either or both tyrosine residues confirmed the specificity of the SH2 domains of GADS and SLP-76 for the CD6 Y629 and Y662 motifs, respectively (Fig. 3 and Table 3). […] Coprecipitation of GADS with CD6 was not observed in Jurkat (J14) cells, which lack SLP-76 (data not shown). GADS and SLP-76 interact with each other independently of their SH2 domains. A GADS SH3 domain binds to a proline-rich region of SLP-76 ([15]). This configuration means that both SH2 domains are available for bivalent binding to two phosphorylated tyrosine residues in close proximity. CD6 Y629 is the closest tyrosine residue to CD6 Y662 in the linear amino acid sequence of the cytoplasmic region.
as §2

The target of the next assay is T4, TSAd SH2 (Homo sapiens, UniProt Q9NP31).
T4 construct: Recombinant His-tagged SH2 domains of GADS, GRB2, and TSAd in the popinF vector; His tag; made in house; host or cells: Escherichia coli Rosetta(DE3)/pLysS
As to the kind of experiment: SPR equilibrium binding of recombinant TSAd SH2 domain to immobilized phosphopeptides. To be noted: equilibrium binding of soluble recombinant SH2 domain to immobilized biotinylated peptide, 37°C, 1:1 Langmuir, range, n = 3 (CD28 pYMN: n = 1).
Source text: as §1
Recombinant His-tagged SH2 domains of GADS, GRB2, and TSAd in the popinF vector (provided by Louis Bird, Oxford Protein Production Facility, Harwell, Oxfordshire, UK) and SLP-76 ([1]) were expressed in Escherichia coli Rosetta(DE3)/pLysS competent cells (Novagen) and purified by nickel affinity chromatography and size exclusion chromatography. […] Background signals of proteins over a streptavidin-coated flow cell were subtracted, equilibrium binding data were plotted, and KDs for 1:1 Langmuir binding were determined.

Where [1] appears, read: equilibrium binding of soluble recombinant SH2 domain to immobilized biotinylated peptide (~25 RU on streptavidin-coated CM5 chip), 1:1 Langmuir, n = 3, read-out: KD (μM) GADS SH2.
[2] abbreviates: equilibrium binding of soluble recombinant SH2 domain to immobilized long CD6 peptides (~50 RU), n = 3, read-out: KD (μM) (range) GADS SH2.

pKd: −log10 of the molar value. Where two headings read alike, the source gives them in different places. Where a SMILES comes first, the peptide text is derived from it. Where no end group is shown, it is not given here. [ ]: non-standard residue; d: D form. The star is where a group is joined. Biotin = O=C1N[C@H]2[C@H](CS[C@H]2CCCCC(=O)*)N1; pY = N[C@@H](Cc1ccc(OP(=O)(O)O)cc1)C(=O)O

T2 sequence (P62993 60-152 limits assumed): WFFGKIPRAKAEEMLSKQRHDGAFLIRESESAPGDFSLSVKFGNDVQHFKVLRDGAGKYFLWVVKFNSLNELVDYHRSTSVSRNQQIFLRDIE
T4 sequence (Q9NP31 95-186 limits assumed): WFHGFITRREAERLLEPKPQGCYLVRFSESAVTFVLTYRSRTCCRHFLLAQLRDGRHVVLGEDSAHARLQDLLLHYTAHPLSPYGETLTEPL

By Kd is commonly meant the constant that tells how readily two partners part at equilibrium. A word on the pKd: it is the Kd on a negative log10 scale, so that one unit is a factor of ten. On to `CSCC[C@H](NC(=O)[C@H](Cc1ccc(OP(=O)(O)O)cc1)NC(=O)[C@H](CC(=O)O)NC(=O)[C@H](CO)NC(=O)[C@H](Cc1c[nH]cn1)NC(=O)[C@H](CC(C)C)NC(=O)[C@H](CC(C)C)NC(=O)CCCC[C@@H]1SC[C@@H]2NC(=O)N[C@@H]21)C(=O)N[C@@H](CC(N)=O)C(=O)N[C@@H](CCSC)C(=O)N[C@H](C(=O)N1CCC[C@H]1C(=O)O)[C@@H](C)O` [CD28 pYMN, reference compound] (Biotin-LLHSD[pY]MNMTP-OH), for which the Kd at GADS SH2 (setting [1]) and on GRB2 SH2 was 2 to 3 µM each time. On GADS SH2, the negative-log Kd (pKd) was 5.70.

For “Biotin-STSSGEW[pY]QNFQPPPQPPSEEQFGCPGSPSPQPDSTDNDDYDDISAA [pY629]”, at GADS SH2 (setting [2]), the Kd is 0.2 to 0.6 µM. Further, the “binding of the SLP-76 SH2 domain” value on SLP-76 SH2 (long CD6 peptides, data not shown) is recorded as “no binding”.

Take `NC(=O)CC[C@H](NC(=O)[C@H](Cc1ccc(OP(=O)(O)O)cc1)NC(=O)[C@H](Cc1c[nH]c2ccccc12)NC(=O)[C@H](CCC(=O)O)NC(=O)CNC(=O)[C@H](CO)NC(=O)[C@H](CO)NC(=O)CCCC[C@@H]1SC[C@@H]2NC(=O)N[C@@H]21)C(=O)N[C@@H](CC(N)=O)C(=O)N[C@@H](Cc1ccccc1)C(=O)N[C@@H](CCC(N)=O)C(=O)N1CCC[C@H]1C(=O)O` [CD6 pY629] (Biotin-SSGEW[pY]QNFQP-OH): the values for the Kd on GADS SH2 (setting [1]), on GRB2 SH2 and on TSAd SH2 were 1 to 3 µM, 2 to 4 µM and 26 to 58 µM, respectively. Moreover, the pKd at GADS SH2 was 6.00; on GRB2 SH2 (fitted equilibrium curve of the experiment shown, 2-fold serial dilutions of GRB2 SH2 from 106 μM over immobilized peptide, streptavidin background subtracted, read-out: KD, GRB2 SH2 (Fig. 1B)), 5.70.

“Biotin-STSSGEWYQNFQPPPQPPSEEQFGCPGSPSPQPDSTDNDD[pY]DDISAA [pY662]”: the Kd on SLP-76 SH2 is 0.3 to 2 µM.

For the molecule “Biotin-STSSGEW[pY]QNFQPPPQPPSEEQFGCPGSPSPQPDSTDNDD[pY]DDISAA [pY629 pY662]”, the results for the Kd at GADS SH2 (setting [2]) and at SLP-76 SH2 were 0.1 to 2 µM and 0.3 to 2 µM, respectively.
